Results: patent US11365184B2, “Antiproliferative compounds, and their pharmaceutical compositions and uses” (Celgene Corporation, priority 2016, dated 2022)

Test system: KG-1 cell line
Test: KG-1 cell proliferation assay (Cell Titer-Glo)
Assay type: cell-based
Conditions: Homo sapiens; KG-1 cells, 72 hours post-treatment, Cell Titer-Glo luminescence; read-out: FCA Prolif Cell TiterGlo KG-1 72 h (IC50)
Description: The following is an example of an assay that can be used to determine the anti-proliferative activity of Compound A and Compound B in KG-1 cell line (American Type Culture Collection [ATCC]: catalogue number ATCC© CCL-246™) at 72 hours post-treatment. The seeding density for KG-1 can be optimized to ensure assay linearity in 384-well plates.
Increasing concentrations of test compounds (0.5 nM to 10 μM) was spotted in a 10-point serial dilution fashion (3-fold dilution) in duplicate via an acoustic dispenser (EDC ATS-100) into an empty 384-well plate. The dimethyl sulfoxide (DMSO) concentration was kept constant for a final assay concentration of 0.1% DMSO. Prior to testing, KG-1 cells were grown in RPMI-1640 (Roswell Park Memorial Institute-1640) medium with 10% FBS (fetal bovine serum: HyClone) and expanded in culture flasks to provide sufficient amounts of starting material. Cells were then diluted to 5000 cells per well, in a 50 μL volume and added directly to the compound-spotted 384-well plates. Cells were allowed to grow for 72 hours in 5% CO2 at 37° C. At the time when exposure of cells to compound began (to), initial viable cell number was assessed via Cell Titer-Glo® Luminescent Cell Viability Assay at a 1 vol: 2 vol ratio according to manufacturer's instructions (Promega Corporation, Madison, Wis.) by quantifying the level of luminescence generated by adenosine-5′-triphosphate (ATP) present in viable cells. After 72 hours, cell viability of the treated cells is assessed via Cell Titer-Glo® and read for luminescence.

Row | SMILES | IC50
1 | O=C1CCC(N2Cc3cc(CNC(=O)C(F)(F)c4ccc(Cl)cc4)ccc3C2=O)C(=O)N1COP(=O)(O)O (stereo not drawn) | 100 to 700 nM
2 | O=C1CCC(N2Cc3cc(CNC(=O)C(F)(F)c4ccc(F)cc4)ccc3C2=O)C(=O)N1COP(=O)(O)O (stereo not drawn) | 100 to 700 nM
3 | CC(C)[C@H](N)C(=O)OCN1C(=O)CCC(N2Cc3cc(CNC(=O)C(F)(F)c4ccc(F)cc4)ccc3C2=O)C1=O (stereo partly drawn) | 10 to 100 nM
